What was measured:
human P2X4 = target: T1, human P2X4 (Homo sapiens, UniProt Q99571); assay: FLIPR assay, human P2X4 1321N1 Astrocytoma Cells; format: cell-based; parameters: expressed in transfected cells; details: agonist Mg-ATP at EC80
T1 sequence (Q99571 1-388): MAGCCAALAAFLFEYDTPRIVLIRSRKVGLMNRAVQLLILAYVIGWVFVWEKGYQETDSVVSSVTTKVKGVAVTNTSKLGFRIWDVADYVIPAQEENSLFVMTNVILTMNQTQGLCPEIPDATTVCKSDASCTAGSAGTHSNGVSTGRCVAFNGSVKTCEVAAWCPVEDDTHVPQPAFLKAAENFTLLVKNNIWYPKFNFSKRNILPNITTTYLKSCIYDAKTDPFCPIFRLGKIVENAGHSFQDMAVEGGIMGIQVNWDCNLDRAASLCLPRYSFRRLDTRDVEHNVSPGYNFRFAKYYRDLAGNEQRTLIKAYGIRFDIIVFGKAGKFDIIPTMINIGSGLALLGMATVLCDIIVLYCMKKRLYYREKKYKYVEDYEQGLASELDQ
Experimental: 1321N1 Astrocytoma cells stably expressing human P2X4 or rat P2X4 or mouse P2X4 were plated in Collagen ITO-treated microplate at a seeding density of 10000 cells/well and incubated overnight. P2X4 function was assessed by measuring intracellular calcium changes using the calcium-chelating dye Fluo8-AM (Molecular Devices) on a fluorescent imaging plate reader (FLEX/FLIPR station; Molecular Devices). On the day of the assay, the medium was removed and the cells were incubated for 30 min at […] and 5% CO2 in 30 μL of dye buffer (Hank's balanced salt solution, 10 mM HEPES, 1.8 mM CaCl2, 1 mM MgCl2, 2 mM probenecid, 5 mM D-glucose monohydrate, 5 μM Fluo8-AM, pH=7.4). Compounds diluted in probenecid buffer (Hank's balanced salt solution, 10 mM HEPES, 1.8 mM CaCl2, 1 mM MgCl2, 2 mM probenecid, 5 mM D-glucose monohydrate, pH=7.4) were added in a volume of 10 μL and allowed to incubate for 30 min at room temperature. The final assay DMSO concentration was 0.25%. The agonist, Mg-ATP (Sigma), was added in a volume of 10 μL at a concentration representing the EC80 value. EC80 was determined to be 0.5 μM for human and mouse P2X4 and 5 μM for rat P2X4. The fluorescence was measured for an interval of 120 sec at 2 sec intervals. The excitation and emission wavelengths used to monitor fluorescence were 470-495 nm and 515-575 nm, respectively. The data was analyzed based on the increase in peak relative fluorescence units (RFU) compared to the basal fluorescence and the data was normalized to the agonist control. The compounds were tested in triplicates per plate and mean values were plotted in Excel XLFit to determine IC50 values, percentage of maximal inhibition and the Hill coefficients.

Sprague Dawley (SD) rats = assay: tMCAO-Induced Ischemic Stroke Model in Rats; format: in vivo, rat; details: per os twice a day for seven days, from day 8 on, p<5% vs vehicle treated tMCAO-group
Experimental: Transient middle cerebral artery occlusion (tMCAO) was performed in approximately 3 months old male Sprague Dawley (SD) rats according to the method described by Schmid-Elsaesser et al. [Stroke. 1998; 29(10):2162-2170]. In particular, the right common carotid artery (CCA) was exposed through a midline neck incision and carefully dissected free from surrounding nerves and fascia—from its bifurcation to the base of the skull. […] The ECA was dissected further distally and coagulated along with the terminal lingual and maxillary artery branches, just before their bifurcation. The internal carotid artery (ICA) was isolated and carefully separated from the adjacent vagus nerve, and the pterygopalatine artery was ligated close to its origin with a 5-0 nylon suture. Thereafter, a 4-0 silk suture was tied loosely around the mobilized ECA stump, and a 4 cm length of Doccol 4-0 monofilament suture (coated with silicone) was inserted through the proximal ECA into the ICA and thence into the circle of Willis, effectively occluded the MCA. The surgical wound was closed and the animals were returned to their cages for recovery from anesthesia. Two hours after occlusion, rats were re-anesthetized and the monofilament was withdrawn to allow reperfusion. The wound was closed again and rats were returned to their cages.
Four groups of rats with 12-15 rats per group were included into the study. […]

Human P2X4 1321N1 Astrocytoma Cells (FLIPR Assay) avg Efficacy (human P2X4) [%]	IC50 (human P2X4) [nM]	Compound	modified neurologic severity score (mNSS) (Sprague Dawley (SD) rats)
60	57	NS(=O)(=O)c1cc(NC(=O)Cc2ccccc2Cl)ccc1-n1cc(C(F)(F)F)cn1 [Example 19, 2-(2-Chlorophenyl)-N-{3-sulfamoyl-4-[4-(trifluoromethyl)-1H-pyrazol-1-yl]phenyl}acetamide]	–
80	46	NS(=O)(=O)c1cc(NC(=O)Cc2ccccc2Cl)ccc1-c1cnn(C(F)F)c1 [Example 326, 2-(2-Chlorophenyl)-N-{4-[1-(difluoromethyl)-1H-pyrazol-4-yl]-3-sulfamoylphenyl}acetamide]	–
83	64	N#Cc1cnn(-c2ccc(NC(=O)Cc3ccccc3Cl)cc2S(N)(=O)=O)c1 [Example 39, 2-(2-Chlorophenyl)-N-[4-(4-cyano-1H-pyrazol-1-yl)-3-sulfamoylphenyl]acetamide]	significant smaller mNSS than the vehicle treated tMCAO-group
